Reference: ChEMBL document CHEMBL4190388, “Discovery and Optimization of Indolyl-Containing 4-Hydroxy-2-Pyridone Type II DNA Topoisomerase Inhibitors Active against Multidrug Resistant Gram-negative Bacteria” (J Med Chem, 2018)
≈ marks a conversion by molar mass, not a printed value.

Columns and labels:
Assay type in all cases: functional
Klebsiella pneumoniae = test: Antibacterial activity against wild type Klebsiella pneumoniae ATCC 35657 by CLSI M100-S17 protocol based method
Escherichia coli [1] = test: Antibacterial activity against fluoroquinolone resistant Escherichia coli SKM18 by CLSI M100-S17 protocol based method
Acinetobacter baumannii [2] = test: Antibacterial activity against fluoroquinolone resistant Acinetobacter baumannii isolate MMX2240 by CLSI M100-S17 protocol based method
Escherichia coli [3] = test: Antibacterial activity against wild type Escherichia coli ATCC 25922 by CLSI M100-S17 protocol based method
Acinetobacter baumannii [4] = test: Antibacterial activity against wild type Acinetobacter baumannii ATCC BAA-747 by CLSI M100-S17 protocol based method
Escherichia coli [5] = test: Antibacterial activity against wild type Escherichia coli ATCC 25922 in presence of HSA by CLSI M100-S17 protocol based method
Escherichia coli [6] = test: Antibacterial activity against quinolone resistance Escherichia coli isolate ELZ4251 harboring gyrA/parC mutant by CLSI M100-S17 protocol based method

Row | Structure (SMILES) | MIC (Klebsiella pneumoniae) | MIC (Escherichia coli [1]) | MIC (Acinetobacter baumannii [2]) | MIC (Escherichia coli [3]) | MIC (Acinetobacter baumannii [4]) | MIC (Escherichia coli [5]) | MIC (Escherichia coli [6])
1 | CCc1c(-c2ccc(N(C)C)cc2)[nH]c(=O)c(C(=O)O)c1O | 3.1 µg/mL (≈ 10.3 µM) | 15.6 µg/mL (≈ 51.6 µM) | 6.3 µg/mL (≈ 20.8 µM) | 0.78 µg/mL (≈ 2.58 µM) | 1.6 µg/mL (≈ 5.29 µM) | > 62.5 µg/mL | 15.6 µg/mL (≈ 51.6 µM)
2 | CCc1c(-c2ccc3c(c2)cc(CN2CCCC2)n3C)[nH]c(=O)c(C(=O)O)c1O | 0.78 µg/mL (≈ 1.97 µM) | 6.3 µg/mL (≈ 15.9 µM) | 12.5 µg/mL (≈ 31.6 µM) | 0.78 µg/mL (≈ 1.97 µM) | 0.78 µg/mL (≈ 1.97 µM) | – | 6.3 µg/mL (≈ 15.9 µM)
3 | CN(C)Cc1cc2cc(-c3cc(O)c(C(=O)O)c(=O)[nH]3)ccc2n1C | – | > 12.5 µg/mL | – | > 12.5 µg/mL | – | – | –
4 | COC1CCN(Cc2cc3cc4c(cc3n2C)OCCc2c-4[nH]c(=O)c(C(=O)O)c2O)C1 (configuration not stated) | 15.6 µg/mL (≈ 35.5 µM) | 2 µg/mL (≈ 4.55 µM) | 7.8 µg/mL (≈ 17.7 µM) | 3.9 µg/mL (≈ 8.87 µM) | 3.9 µg/mL (≈ 8.87 µM) | 7.8 µg/mL | –
5 | Cn1c(CN2CCCC2)cc2cc3c(cc21)SCCc1c-3[nH]c(=O)c(C(=O)O)c1O | 2 µg/mL (≈ 4.7 µM) | 2 µg/mL (≈ 4.7 µM) | 3.9 µg/mL (≈ 9.17 µM) | 2 µg/mL (≈ 4.7 µM) | 2 µg/mL (≈ 4.7 µM) | 31.3 µg/mL | –
6 | CCNCc1cc2cc3c(cc2n1C)NCCc1c-3[nH]c(=O)c(C(=O)O)c1O | 6.3 µg/mL (≈ 16.5 µM) | 3.9 µg/mL (≈ 10.2 µM) | > 25 µg/mL | 15.6 µg/mL (≈ 40.8 µM) | > 25 µg/mL | – | > 62.5 µg/mL
7 | CC(C)c1c(-c2ccc3c(c2)cc(CN(C)C)n3C)[nH]c(=O)c(C(=O)O)c1O | 3.9 µg/mL (≈ 10.2 µM) | > 62.5 µg/mL | 62.5 µg/mL (≈ 163 µM) | 3.1 µg/mL (≈ 8.08 µM) | 15.6 µg/mL (≈ 40.7 µM) | 31.3 µg/mL | –
8 | Cc1c(-c2ccc3c(c2)cc(CN(C)C)n3C)[nH]c(=O)c(C(=O)O)c1O | 6.3 µg/mL (≈ 17.7 µM) | 1.6 µg/mL (≈ 4.5 µM) | 1.6 µg/mL (≈ 4.5 µM) | 6.3 µg/mL (≈ 17.7 µM) | 6.3 µg/mL (≈ 17.7 µM) | 12.5 µg/mL | 3.1 µg/mL (≈ 8.72 µM)
9 | COCCNCc1cc2cc3c(cc2n1C)CCCc1c-3[nH]c(=O)c(C(=O)O)c1O | 0.78 µg/mL (≈ 1.9 µM) | 0.5 µg/mL (≈ 1.22 µM) | 1 µg/mL (≈ 2.43 µM) | 0.78 µg/mL (≈ 1.9 µM) | 1.6 µg/mL (≈ 3.89 µM) | 3.1 µg/mL | 1.6 µg/mL (≈ 3.89 µM)
10 | CN(C)Cc1cc2cc3c(cc2n1C)SCCc1c-3[nH]c(=O)c(C(=O)O)c1O | 2 µg/mL (≈ 5.01 µM) | 2 µg/mL (≈ 5.01 µM) | 3.9 µg/mL (≈ 9.76 µM) | 2 µg/mL (≈ 5.01 µM) | 2 µg/mL (≈ 5.01 µM) | 31.2 µg/mL | –
11 | CC(C)NCc1cc2cc3c(cc2n1C)NCCc1c-3[nH]c(=O)c(C(=O)O)c1O | 6.3 µg/mL (≈ 15.9 µM) | 3.9 µg/mL (≈ 9.84 µM) | > 25 µg/mL | 7.8 µg/mL (≈ 19.7 µM) | > 25 µg/mL | – | 62.5 µg/mL (≈ 158 µM)
12 | Cn1c(CN2CCCC2)cc2cc3c(cc21)COCc1c-3[nH]c(=O)c(C(=O)O)c1O | 3.1 µg/mL (≈ 7.57 µM) | 0.39 µg/mL (≈ 0.953 µM) | 12.5 µg/mL (≈ 30.5 µM) | 3.1 µg/mL (≈ 7.57 µM) | 12.5 µg/mL (≈ 30.5 µM) | – | –
13 | CC(C)NCc1cc2cc3c(cc2n1C)COCc1c-3[nH]c(=O)c(C(=O)O)c1O | 3.1 µg/mL (≈ 7.8 µM) | 0.78 µg/mL (≈ 1.96 µM) | > 50 µg/mL | 12.5 µg/mL (≈ 31.5 µM) | > 50 µg/mL | – | –
14 | CCc1c(-c2ccc3c(c2)cc(CNC)n3C)[nH]c(=O)c(C(=O)O)c1O | 0.78 µg/mL (≈ 2.19 µM) | 1.6 µg/mL (≈ 4.5 µM) | 6.3 µg/mL (≈ 17.7 µM) | 0.39 µg/mL (≈ 1.1 µM) | 0.78 µg/mL (≈ 2.19 µM) | 0.78 µg/mL | 3.1 µg/mL (≈ 8.72 µM)
15 | CN(C)CCNCc1cc2cc3c(cc2n1C)CCCc1c-3[nH]c(=O)c(C(=O)O)c1O | 2 µg/mL (≈ 4.71 µM) | 0.5 µg/mL (≈ 1.18 µM) | 62.5 µg/mL (≈ 147 µM) | 3.9 µg/mL (≈ 9.19 µM) | 15.6 µg/mL (≈ 36.7 µM) | 15.6 µg/mL | –
16 | CCc1c(-c2ccc3c(c2)c(C)c(C)n3C)[nH]c(=O)c(C(=O)O)c1O | – | – | – | > 12.5 µg/mL | – | – | –
17 | CCc1c(-c2ccc3c(c2)cc(CNC(C)(C)C)n3C)[nH]c(=O)c(C(=O)O)c1O | 0.78 µg/mL (≈ 1.96 µM) | 6.3 µg/mL (≈ 15.9 µM) | 6.3 µg/mL (≈ 15.9 µM) | 0.78 µg/mL (≈ 1.96 µM) | 0.78 µg/mL (≈ 1.96 µM) | 1.6 µg/mL | 6.3 µg/mL (≈ 15.9 µM)
18 | CN(C)Cc1cc2cc3c(cc2n1C)COCc1c-3[nH]c(=O)c(C(=O)O)c1O | 3.1 µg/mL (≈ 8.09 µM) | 0.78 µg/mL (≈ 2.03 µM) | 25 µg/mL (≈ 65.2 µM) | 6.3 µg/mL (≈ 16.4 µM) | 25 µg/mL (≈ 65.2 µM) | – | –
19 | CNCc1cc2cc3c(cc2n1C)OCCc1c-3[nH]c(=O)c(C(=O)O)c1O | 1.6 µg/mL (≈ 4.33 µM) | 0.78 µg/mL (≈ 2.11 µM) | > 12.5 µg/mL | 1.6 µg/mL (≈ 4.33 µM) | 12.5 µg/mL (≈ 33.8 µM) | 3.1 µg/mL | > 12.5 µg/mL
20 | CCNCc1cc2cc3c(cc2n1C)OCCc1c-3[nH]c(=O)c(C(=O)O)c1O | 0.78 µg/mL (≈ 2.03 µM) | 0.78 µg/mL (≈ 2.03 µM) | 12.5 µg/mL (≈ 32.6 µM) | 0.78 µg/mL (≈ 2.03 µM) | 12.5 µg/mL (≈ 32.6 µM) | 1.6 µg/mL | 12.5 µg/mL (≈ 32.6 µM)
21 | CNCc1cc2cc3c(cc2n1C)NCCc1c-3[nH]c(=O)c(C(=O)O)c1O | 6.3 µg/mL (≈ 17.1 µM) | 3.9 µg/mL (≈ 10.6 µM) | > 25 µg/mL | 31.3 µg/mL (≈ 85 µM) | > 25 µg/mL | – | > 62.5 µg/mL
22 | CN(C)CCNCc1cc2cc3c(cc2n1C)OCCc1c-3[nH]c(=O)c(C(=O)O)c1O | 31.3 µg/mL (≈ 73.4 µM) | 7.8 µg/mL (≈ 18.3 µM) | > 62.5 µg/mL | > 62.5 µg/mL | > 62.5 µg/mL | 62.5 µg/mL | –
23 | COC1CCN(Cc2cc3cc4c(cc3n2C)CCCc2c-4[nH]c(=O)c(C(=O)O)c2O)C1 (configuration not stated) | 3.1 µg/mL (≈ 7.09 µM) | 2 µg/mL (≈ 4.57 µM) | 3.1 µg/mL (≈ 7.09 µM) | 1.6 µg/mL (≈ 3.66 µM) | 3.1 µg/mL (≈ 7.09 µM) | 3.1 µg/mL | –
24 | CCc1c(-c2ccc3c(c2)cc(CNC(C)C)n3C)[nH]c(=O)c(C(=O)O)c1O | 0.39 µg/mL (≈ 1.02 µM) | 1.6 µg/mL (≈ 4.17 µM) | 3.1 µg/mL (≈ 8.08 µM) | 0.39 µg/mL (≈ 1.02 µM) | 0.78 µg/mL (≈ 2.03 µM) | 1.6 µg/mL | 3.1 µg/mL (≈ 8.08 µM)
25 | COCCNCc1cc2cc3c(cc2n1C)OCCc1c-3[nH]c(=O)c(C(=O)O)c1O | 2 µg/mL (≈ 4.84 µM) | 0.5 µg/mL (≈ 1.21 µM) | 7.8 µg/mL (≈ 18.9 µM) | 2 µg/mL (≈ 4.84 µM) | 7.8 µg/mL (≈ 18.9 µM) | 15.6 µg/mL | –
26 | CN(C)Cc1cc2cc(-c3[nH]c(=O)c(C(=O)O)c(O)c3C3CC3)ccc2n1C | 31.3 µg/mL (≈ 82.1 µM) | 31.3 µg/mL (≈ 82.1 µM) | 15.6 µg/mL (≈ 40.9 µM) | 62.5 µg/mL (≈ 164 µM) | > 62.5 µg/mL | > 62.5 µg/mL | –
